Consider one compound from patent US10159756B2, “Complex of mannosyl serum albumin, method of preparing the same, optical imaging probe and kit comprising the same” (Korea University Research and Business Foundation, priority 2014, dated 2018).

Data set [1] deals with lymph nodes. The data set can be described thus: Biodistribution after injection into the mouse footpad. In kind it is in vivo. The procedure:
Each of the ICG: MSA, prepared in Example 3, and ICG, was treated into U937 cells (Korean Cell Line Bank (KCLB) No. 21593.1) activated with PMA (phorbol 12-myristate 13-acetate, Sigma, USA) (FIG. 9a), and the distribution thereof in the cells was monitored. […] In addition, each of ICG:MSA and ICG was injected into the mouse footpad, and the biodistribution thereof was examined.

Data set [2] relates to metastatic sentinel lymph node. Description: Detection of metastatic sentinel lymph node (ex vivo fluorescence, H & E staining, immunostaining). In kind it is in vivo, rabbit. The settings on record: n = 4 for ICG group, n = 5 for ICG:MSA group. As for the experimental part:
A VX2 rabbit tumor model (Radiology, 2005; 234:423-430) was established, and after 2 weeks, 60 μM of each of ICG and ICG:MSA was injected subcutaneously into the peritumor of the tumor model. Then, the efficiency with which each of ICG and ICG:MSA detects a sentinel lymph node was examined using a fluorescence imaging system (developed by the applicant). Dissected normal and metastatic lymph nodes were confirmed ex vivo by fluorescence, and whether cancer metastasized to the lymph nodes was examined by H & E tissue staining and immunostaining.

As to `CC1(C)C(/C=C/C=C/C=C/C=C2\N(CCCCS(=O)(=O)O)c3ccc4ccccc4c3C2(C)C)=[N+](CCCCS(=O)(=O)[O-])c2ccc3ccccc3c21` [ICG, Indocyanine green], the biodistribution result in data set [1] was “distributed in the popliteal lymph nodes and did spread to the axillary lymph nodes within a short time”. Besides, in data set [2], the “Metastatic SLN rate” value was 50% and the Total came to 2.
